Measurements reported in ChEMBL document CHEMBL4507288 (2021).

Columns and labels:
[1] = target: Serine/threonine-protein kinase WNK1 (Homo sapiens) (UniProt Q9H4A3); settings: Compound concentration 1000.0 nM
[2] = system: Receptor-type tyrosine-protein kinase FLT3 (Homo sapiens), P36888 [D835H]; settings: Compound concentration 1000.0 nM
[3] = target: Dual serine/threonine and tyrosine protein kinase (Homo sapiens) (UniProt Q6XUX3); settings: Compound concentration 1000.0 nM
[4] = target: Cyclin-G-associated kinase (Homo sapiens) (UniProt O14976); settings: Compound concentration 1000.0 nM
[5] = target: Serine/threonine-protein kinase ULK3 (Homo sapiens) (UniProt Q6PHR2); settings: Compound concentration 1000.0 nM
[6] = target: Non-receptor tyrosine-protein kinase TNK1 (Homo sapiens) (UniProt Q13470); settings: Compound concentration 1000.0 nM
[7] = system: Receptor-type tyrosine-protein kinase FLT3 (Homo sapiens), P36888 [D835Y]; settings: Compound concentration 1000.0 nM
[8] = target: Protein kinase C epsilon type (Homo sapiens) (UniProt Q02156); settings: Compound concentration 1000.0 nM
[9] = target: Dual specificity mitogen-activated protein kinase kinase 3 (Homo sapiens) (UniProt P46734); settings: Compound concentration 1000.0 nM
[10] = target: Serine/threonine-protein kinase SIK3 (Homo sapiens) (UniProt Q9Y2K2); settings: Compound concentration 1000.0 nM
[11] = target: Non-receptor tyrosine-protein kinase TYK2 (Homo sapiens) (UniProt P29597); settings: Compound concentration 1000.0 nM
[12] = target: Ephrin type-A receptor 2 (Homo sapiens) (UniProt P29317); settings: Compound concentration 1000.0 nM
[13] = target: Serine/threonine-protein kinase BRSK2 (Homo sapiens) (UniProt Q8IWQ3); settings: Compound concentration 1000.0 nM
[14] = target: Mitogen-activated protein kinase kinase kinase 1 (Homo sapiens) (UniProt Q13233); settings: Compound concentration 1000.0 nM
[15] = target: Dual specificity protein kinase CLK4 (Homo sapiens) (UniProt Q9HAZ1); settings: Compound concentration 1000.0 nM
[16] = target: Tyrosine-protein kinase TXK (Homo sapiens) (UniProt P42681); settings: Compound concentration 1000.0 nM
Tyrosine-protein kinase TXK (Homo sapiens), sequence (P42681 whole entry): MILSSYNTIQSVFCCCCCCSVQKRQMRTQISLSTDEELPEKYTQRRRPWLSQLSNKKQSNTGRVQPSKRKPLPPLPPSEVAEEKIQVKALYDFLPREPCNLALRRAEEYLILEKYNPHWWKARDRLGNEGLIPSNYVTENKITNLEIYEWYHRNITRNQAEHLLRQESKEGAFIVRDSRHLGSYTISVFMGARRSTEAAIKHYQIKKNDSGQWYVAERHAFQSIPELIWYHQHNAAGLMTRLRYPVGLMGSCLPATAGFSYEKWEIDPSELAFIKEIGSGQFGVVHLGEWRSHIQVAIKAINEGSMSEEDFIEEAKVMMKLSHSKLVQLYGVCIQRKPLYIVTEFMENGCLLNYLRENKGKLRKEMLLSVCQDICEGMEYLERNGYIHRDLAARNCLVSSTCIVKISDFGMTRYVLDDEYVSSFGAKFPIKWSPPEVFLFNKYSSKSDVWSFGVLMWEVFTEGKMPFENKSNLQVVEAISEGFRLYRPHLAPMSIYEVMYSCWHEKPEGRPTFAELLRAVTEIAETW

[17] = target: High affinity nerve growth factor receptor (Homo sapiens) (UniProt P04629); settings: Compound concentration 1000.0 nM
[18] = target: Serine/threonine-protein kinase 3 (Homo sapiens) (UniProt Q13188); settings: Compound concentration 1000.0 nM
[19] = target: Phosphatidylinositol 4-phosphate 5-kinase type-1 gamma (Homo sapiens) (UniProt O60331); settings: Compound concentration 1000.0 nM
[20] = target: Serine/threonine-protein kinase PAK 2 (Homo sapiens) (UniProt Q13177); settings: Compound concentration 1000.0 nM
Serine/threonine-protein kinase PAK 2 (Homo sapiens), sequence (Q13177 whole entry): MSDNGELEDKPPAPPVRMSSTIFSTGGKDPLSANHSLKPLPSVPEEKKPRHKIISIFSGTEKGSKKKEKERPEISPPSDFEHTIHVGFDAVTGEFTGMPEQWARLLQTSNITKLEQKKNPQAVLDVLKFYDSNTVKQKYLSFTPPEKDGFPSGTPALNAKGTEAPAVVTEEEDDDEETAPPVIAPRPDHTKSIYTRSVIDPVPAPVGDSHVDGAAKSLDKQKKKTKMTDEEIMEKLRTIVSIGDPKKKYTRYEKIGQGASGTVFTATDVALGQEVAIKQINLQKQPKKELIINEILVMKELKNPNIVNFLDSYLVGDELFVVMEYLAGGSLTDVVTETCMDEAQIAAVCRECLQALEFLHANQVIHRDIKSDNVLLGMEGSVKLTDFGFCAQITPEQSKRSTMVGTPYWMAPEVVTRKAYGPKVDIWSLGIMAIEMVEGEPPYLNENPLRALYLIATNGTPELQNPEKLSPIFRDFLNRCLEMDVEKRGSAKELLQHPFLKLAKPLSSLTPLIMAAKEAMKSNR

[21] = target: Fibroblast growth factor receptor 2 (Homo sapiens) (UniProt P21802); settings: Compound concentration 1000.0 nM
[22] = target: Serine/threonine-protein kinase PLK4 (Homo sapiens) (UniProt O00444); settings: Compound concentration 1000.0 nM
[23] = system: Receptor-type tyrosine-protein kinase FLT3 (Homo sapiens), P36888 [R834Q]; settings: Compound concentration 1000.0 nM
[24] = target: Ribosomal protein S6 kinase alpha-3 (Homo sapiens) (UniProt P51812); settings: Compound concentration 1000.0 nM
Ribosomal protein S6 kinase alpha-3 (Homo sapiens), sequence (P51812 whole entry): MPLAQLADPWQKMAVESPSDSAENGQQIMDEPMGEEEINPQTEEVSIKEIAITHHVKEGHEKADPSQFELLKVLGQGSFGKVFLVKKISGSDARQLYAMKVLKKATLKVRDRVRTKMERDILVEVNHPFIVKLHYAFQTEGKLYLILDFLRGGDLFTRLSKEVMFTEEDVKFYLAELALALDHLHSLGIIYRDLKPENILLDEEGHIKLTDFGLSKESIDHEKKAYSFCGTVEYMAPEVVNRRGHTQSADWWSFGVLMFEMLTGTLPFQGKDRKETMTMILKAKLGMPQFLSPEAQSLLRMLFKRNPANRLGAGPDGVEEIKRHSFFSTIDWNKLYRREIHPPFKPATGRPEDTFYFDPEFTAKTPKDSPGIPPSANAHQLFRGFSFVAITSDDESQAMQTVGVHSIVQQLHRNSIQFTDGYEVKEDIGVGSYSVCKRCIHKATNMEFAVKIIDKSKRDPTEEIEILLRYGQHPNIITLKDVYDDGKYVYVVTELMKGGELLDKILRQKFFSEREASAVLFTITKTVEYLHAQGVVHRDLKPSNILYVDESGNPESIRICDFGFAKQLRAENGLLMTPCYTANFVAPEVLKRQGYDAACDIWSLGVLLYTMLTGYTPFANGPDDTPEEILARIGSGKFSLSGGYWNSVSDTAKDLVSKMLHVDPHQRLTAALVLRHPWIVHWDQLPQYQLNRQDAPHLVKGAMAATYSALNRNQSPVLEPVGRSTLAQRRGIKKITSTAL

[25] = target: Activated CDC42 kinase 1 (Homo sapiens) (UniProt Q07912); settings: Compound concentration 1000.0 nM
[26] = target: Ribosomal protein S6 kinase alpha-1 (Homo sapiens) (UniProt Q15418); settings: Compound concentration 1000.0 nM
[27] = target: Serine/threonine-protein kinase 32A (Homo sapiens) (UniProt Q8WU08); settings: Compound concentration 1000.0 nM
[28] = target: SNF-related serine/threonine-protein kinase (Homo sapiens) (UniProt Q9NRH2); settings: Compound concentration 1000.0 nM
[29] = target: Serine/threonine-protein kinase Nek4 (Homo sapiens) (UniProt P51957); settings: Compound concentration 1000.0 nM
[30] = target: Serine/threonine-protein kinase RIO1 (Homo sapiens) (UniProt Q9BRS2); settings: Compound concentration 1000.0 nM
[31] = target: Serine/threonine-protein kinase PLK3 (Homo sapiens) (UniProt Q9H4B4); settings: Compound concentration 1000.0 nM
Serine/threonine-protein kinase PLK3 (Homo sapiens), sequence (Q9H4B4 whole entry, looked up): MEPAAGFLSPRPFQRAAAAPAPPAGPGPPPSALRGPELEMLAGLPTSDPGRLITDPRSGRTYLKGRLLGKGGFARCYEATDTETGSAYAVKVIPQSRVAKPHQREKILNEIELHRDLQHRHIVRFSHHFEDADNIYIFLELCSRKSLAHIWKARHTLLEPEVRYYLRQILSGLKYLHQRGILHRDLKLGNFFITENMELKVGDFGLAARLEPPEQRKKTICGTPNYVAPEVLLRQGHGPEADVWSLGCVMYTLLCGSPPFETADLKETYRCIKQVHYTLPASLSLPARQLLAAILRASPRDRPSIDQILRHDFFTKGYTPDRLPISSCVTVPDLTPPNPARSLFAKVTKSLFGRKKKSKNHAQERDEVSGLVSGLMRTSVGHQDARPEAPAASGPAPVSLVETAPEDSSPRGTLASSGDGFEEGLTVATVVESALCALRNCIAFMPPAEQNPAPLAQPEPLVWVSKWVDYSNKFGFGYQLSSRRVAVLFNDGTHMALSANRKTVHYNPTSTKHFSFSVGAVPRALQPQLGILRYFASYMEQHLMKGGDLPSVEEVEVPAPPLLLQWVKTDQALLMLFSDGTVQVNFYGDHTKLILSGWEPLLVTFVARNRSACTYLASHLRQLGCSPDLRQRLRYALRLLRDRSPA

[32] = target: Serine/threonine-protein kinase TAO3 (Homo sapiens) (UniProt Q9H2K8); settings: Compound concentration 1000.0 nM
[33] = target: Muscle, skeletal receptor tyrosine-protein kinase (Homo sapiens) (UniProt O15146); settings: Compound concentration 1000.0 nM
[34] = target: Wee1-like protein kinase 2 (Homo sapiens) (UniProt P0C1S8); settings: Compound concentration 1000.0 nM
[35] = system: Mast/stem cell growth factor receptor Kit (Homo sapiens), P10721 [D816H]; settings: Compound concentration 1000.0 nM
[36] = target: Mitogen-activated protein kinase kinase kinase 2 (Homo sapiens) (UniProt Q9Y2U5); settings: Compound concentration 1000.0 nM
Mitogen-activated protein kinase kinase kinase 2 (Homo sapiens), sequence (Q9Y2U5 whole entry): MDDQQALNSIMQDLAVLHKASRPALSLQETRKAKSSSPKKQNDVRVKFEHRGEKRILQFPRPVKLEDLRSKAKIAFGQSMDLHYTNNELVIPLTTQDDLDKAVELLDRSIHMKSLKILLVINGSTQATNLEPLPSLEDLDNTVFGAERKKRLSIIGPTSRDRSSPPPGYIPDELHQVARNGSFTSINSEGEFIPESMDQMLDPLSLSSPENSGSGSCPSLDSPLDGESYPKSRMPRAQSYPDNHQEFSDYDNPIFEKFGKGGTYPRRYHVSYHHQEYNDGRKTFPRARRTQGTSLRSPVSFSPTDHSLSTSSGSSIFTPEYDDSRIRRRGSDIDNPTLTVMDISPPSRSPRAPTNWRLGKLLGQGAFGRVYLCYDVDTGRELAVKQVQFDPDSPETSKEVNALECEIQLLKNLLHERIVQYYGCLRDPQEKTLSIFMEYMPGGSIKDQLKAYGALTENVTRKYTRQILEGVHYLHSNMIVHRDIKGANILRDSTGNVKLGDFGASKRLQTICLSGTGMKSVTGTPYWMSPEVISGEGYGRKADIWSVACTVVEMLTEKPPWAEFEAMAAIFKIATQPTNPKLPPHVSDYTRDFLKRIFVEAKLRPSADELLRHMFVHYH

[37] = target: Dual specificity protein kinase CLK1 (Homo sapiens) (UniProt P49759); settings: Compound concentration 1000.0 nM
[38] = target: Serine/threonine-protein kinase pim-3 (Homo sapiens) (UniProt Q86V86); settings: Compound concentration 1000.0 nM
[39] = target: Membrane-associated tyrosine- and threonine-specific cdc2-inhibitory kinase (Homo sapiens) (UniProt Q99640); settings: Compound concentration 1000.0 nM
[40] = target: Serine/threonine-protein kinase 38-like (Homo sapiens) (UniProt Q9Y2H1); settings: Compound concentration 1000.0 nM
[41] = target: Tyrosine-protein kinase JAK1 (Homo sapiens) (UniProt P23458); settings: Compound concentration 1000.0 nM
Tyrosine-protein kinase JAK1 (Homo sapiens), sequence (P23458 whole entry): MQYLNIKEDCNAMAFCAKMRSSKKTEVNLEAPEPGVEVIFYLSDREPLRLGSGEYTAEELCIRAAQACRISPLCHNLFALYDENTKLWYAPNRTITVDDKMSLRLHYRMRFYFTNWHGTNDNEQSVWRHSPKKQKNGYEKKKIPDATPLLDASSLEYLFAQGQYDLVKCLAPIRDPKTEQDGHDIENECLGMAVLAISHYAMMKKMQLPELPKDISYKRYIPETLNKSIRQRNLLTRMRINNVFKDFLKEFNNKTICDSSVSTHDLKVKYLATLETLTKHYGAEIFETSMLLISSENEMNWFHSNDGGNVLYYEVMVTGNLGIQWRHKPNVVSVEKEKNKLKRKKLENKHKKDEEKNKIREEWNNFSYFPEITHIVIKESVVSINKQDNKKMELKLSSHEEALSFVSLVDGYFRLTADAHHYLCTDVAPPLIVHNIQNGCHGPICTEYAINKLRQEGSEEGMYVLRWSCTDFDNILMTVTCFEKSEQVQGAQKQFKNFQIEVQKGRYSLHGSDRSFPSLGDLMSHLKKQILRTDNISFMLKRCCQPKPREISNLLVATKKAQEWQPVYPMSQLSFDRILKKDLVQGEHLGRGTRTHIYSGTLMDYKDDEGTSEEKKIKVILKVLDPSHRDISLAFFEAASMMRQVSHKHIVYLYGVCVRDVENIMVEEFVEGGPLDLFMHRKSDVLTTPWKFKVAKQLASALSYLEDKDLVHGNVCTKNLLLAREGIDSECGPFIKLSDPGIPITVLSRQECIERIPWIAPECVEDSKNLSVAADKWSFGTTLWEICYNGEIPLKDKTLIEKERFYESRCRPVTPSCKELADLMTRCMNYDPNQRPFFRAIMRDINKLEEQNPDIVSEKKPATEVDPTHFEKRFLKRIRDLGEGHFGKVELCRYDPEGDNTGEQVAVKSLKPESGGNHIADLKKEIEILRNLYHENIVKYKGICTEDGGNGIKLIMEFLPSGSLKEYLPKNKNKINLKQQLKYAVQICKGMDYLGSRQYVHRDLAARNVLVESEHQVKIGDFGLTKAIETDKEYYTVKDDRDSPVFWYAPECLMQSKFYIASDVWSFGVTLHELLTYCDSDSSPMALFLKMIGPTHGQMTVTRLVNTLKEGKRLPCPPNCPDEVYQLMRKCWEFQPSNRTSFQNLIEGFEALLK

[42] = target: Alpha-2B adrenergic receptor (Homo sapiens, UniProt P18089); test: GPCRScan assay: inhibition of Alpha2B; parameters: radioligand conc. used [nm] 1.5 – 2.0, parental cells HEKT
Alpha-2B adrenergic receptor, sequence (P18089 whole entry): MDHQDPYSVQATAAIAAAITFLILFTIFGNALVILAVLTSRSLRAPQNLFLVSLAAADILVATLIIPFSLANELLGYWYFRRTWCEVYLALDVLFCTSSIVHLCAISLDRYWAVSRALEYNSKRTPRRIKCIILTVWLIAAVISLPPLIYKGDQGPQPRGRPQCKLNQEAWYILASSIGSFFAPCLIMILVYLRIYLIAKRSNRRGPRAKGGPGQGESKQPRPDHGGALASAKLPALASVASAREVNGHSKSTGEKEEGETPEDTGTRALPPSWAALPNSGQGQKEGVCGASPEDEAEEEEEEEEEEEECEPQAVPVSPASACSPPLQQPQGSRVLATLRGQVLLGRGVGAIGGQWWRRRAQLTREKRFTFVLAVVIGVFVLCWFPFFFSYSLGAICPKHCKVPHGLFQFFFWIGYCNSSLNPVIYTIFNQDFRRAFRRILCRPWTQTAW

[43] = target: Kappa-type opioid receptor (Homo sapiens, UniProt P41145); test: GPCRScan assay: inhibition of KOR; parameters: radioligand conc. used [nm] 0.6 – 1.2, parental cells stable HEK
Kappa-type opioid receptor, sequence (P41145 whole entry): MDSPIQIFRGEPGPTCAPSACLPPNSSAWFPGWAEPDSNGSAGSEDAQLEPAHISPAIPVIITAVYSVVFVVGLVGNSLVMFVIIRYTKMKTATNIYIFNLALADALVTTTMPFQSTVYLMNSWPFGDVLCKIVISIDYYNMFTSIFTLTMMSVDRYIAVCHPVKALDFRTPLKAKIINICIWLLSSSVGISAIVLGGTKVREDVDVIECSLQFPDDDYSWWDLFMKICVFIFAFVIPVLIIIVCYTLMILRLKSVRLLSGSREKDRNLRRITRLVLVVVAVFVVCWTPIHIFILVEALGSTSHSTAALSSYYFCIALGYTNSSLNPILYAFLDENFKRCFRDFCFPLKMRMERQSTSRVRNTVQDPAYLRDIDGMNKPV

[44] = target: D(3) dopamine receptor (Homo sapiens, UniProt P35462); test: GPCRScan assay: inhibition of D3; parameters: radioligand conc. used [nm] 0.5 – 1.8, parental cells HEKT
[45] = target: Histamine H2 receptor (Homo sapiens, UniProt P25021); settings: Compound concentration 10.0 uM

O=S(=O)(NC1CCC(c2cc(F)ccc2F)(S(=O)(=O)c2ccc(Cl)cc2)CC1)C(F)(F)F (stereo unspecified) [MRK-560]
inactive: residual activity [1] 100% | residual activity [2] 90% | residual activity [3] 100% | residual activity [4] 89% | residual activity [5] 82% | residual activity [6] 98% | residual activity [7] 98% | residual activity [8] 52% | residual activity [9] 83% | residual activity [10] 100% | residual activity [11] 86% | residual activity [12] 84% | residual activity [13] 100% | residual activity [14] 100% | residual activity [15] 84% | residual activity [16] 99% | residual activity [17] 76% | residual activity [18] 100% | residual activity [19] 87% | residual activity [20] 100% | residual activity [21] 84% | residual activity [22] 100% | residual activity [23] 100% | residual activity [24] 83% | residual activity [25] 96% | residual activity [26] 100% | residual activity [27] 97% | residual activity [28] 100% | residual activity [29] 100% | residual activity [30] 98% | residual activity [31] 97% | residual activity [32] 100% | residual activity [33] 100% | residual activity [34] 100% | residual activity [35] 71% | residual activity [36] 98% | residual activity [37] 78% | residual activity [38] 100% | residual activity [39] 100% | residual activity [40] 75% | residual activity [41] 100%

CC(C)(C)OC(=O)N1CCCC1CNC1CCC(c2cc(F)ccc2F)(S(=O)(=O)c2ccc(Cl)cc2)CC1 (stereo unspecified) [GSI-NC]
3300 nM: Ki ([43]; read-out: Ki)
710 nM: Ki [44]
879 nM: Ki [42]
active: inhibition [45] 53.1%
3310 nM: Ki ([43]; read-out: pKi (converted))
